# Values quoted from earlier work in patent publication US11147270B2, “Pesticide based on formation of formate anion in situ” (priority 2018, dated 2021).
# Conditions: at 20° C.
smiles,measurement,value
Cl [hydrochloric acid],vapor pressure,approximately 32452 mmHg
